Holding throughout (test): cell-based
The target of assay [1] is T1, hNav1.7 (Homo sapiens, UniProt Q15858). Type of assay: cell-based.
Assay [2] concerns the target T2, hNav1.5 (Homo sapiens, UniProt Q14524).
The next assay concerns the target hNav1.3 (Homo sapiens, UniProt Q9NY46). Conditions: IonWorks Quattro, read-out: IWQ Use Nav1.3.
The target in assay [3] is T1, hNav1.7. The settings on record: Nav1.7 Use IC50.
For assay [4], the target named is T2, hNav1.5. The source holds these as a separate data set.
Setting [5] is: IonWorks Quattro, use-dependent block, hNav1.5, read-out: IWQ Use Nav1.5.

Each structure is given as a SMILES string. Read-outs that look alike come from different tables or passages of the source. Positions of bridges follow the written chain, without caps; N, C: chain ends. Non-standard residues stand in square brackets, D forms with d. Residues, ends and D or L forms follow the SMILES beside them. Lys(Me2) = CN(C)CCCC[C@H](N)C(=O)O

hNav1.3, sequence (Q9NY46 whole entry, looked up): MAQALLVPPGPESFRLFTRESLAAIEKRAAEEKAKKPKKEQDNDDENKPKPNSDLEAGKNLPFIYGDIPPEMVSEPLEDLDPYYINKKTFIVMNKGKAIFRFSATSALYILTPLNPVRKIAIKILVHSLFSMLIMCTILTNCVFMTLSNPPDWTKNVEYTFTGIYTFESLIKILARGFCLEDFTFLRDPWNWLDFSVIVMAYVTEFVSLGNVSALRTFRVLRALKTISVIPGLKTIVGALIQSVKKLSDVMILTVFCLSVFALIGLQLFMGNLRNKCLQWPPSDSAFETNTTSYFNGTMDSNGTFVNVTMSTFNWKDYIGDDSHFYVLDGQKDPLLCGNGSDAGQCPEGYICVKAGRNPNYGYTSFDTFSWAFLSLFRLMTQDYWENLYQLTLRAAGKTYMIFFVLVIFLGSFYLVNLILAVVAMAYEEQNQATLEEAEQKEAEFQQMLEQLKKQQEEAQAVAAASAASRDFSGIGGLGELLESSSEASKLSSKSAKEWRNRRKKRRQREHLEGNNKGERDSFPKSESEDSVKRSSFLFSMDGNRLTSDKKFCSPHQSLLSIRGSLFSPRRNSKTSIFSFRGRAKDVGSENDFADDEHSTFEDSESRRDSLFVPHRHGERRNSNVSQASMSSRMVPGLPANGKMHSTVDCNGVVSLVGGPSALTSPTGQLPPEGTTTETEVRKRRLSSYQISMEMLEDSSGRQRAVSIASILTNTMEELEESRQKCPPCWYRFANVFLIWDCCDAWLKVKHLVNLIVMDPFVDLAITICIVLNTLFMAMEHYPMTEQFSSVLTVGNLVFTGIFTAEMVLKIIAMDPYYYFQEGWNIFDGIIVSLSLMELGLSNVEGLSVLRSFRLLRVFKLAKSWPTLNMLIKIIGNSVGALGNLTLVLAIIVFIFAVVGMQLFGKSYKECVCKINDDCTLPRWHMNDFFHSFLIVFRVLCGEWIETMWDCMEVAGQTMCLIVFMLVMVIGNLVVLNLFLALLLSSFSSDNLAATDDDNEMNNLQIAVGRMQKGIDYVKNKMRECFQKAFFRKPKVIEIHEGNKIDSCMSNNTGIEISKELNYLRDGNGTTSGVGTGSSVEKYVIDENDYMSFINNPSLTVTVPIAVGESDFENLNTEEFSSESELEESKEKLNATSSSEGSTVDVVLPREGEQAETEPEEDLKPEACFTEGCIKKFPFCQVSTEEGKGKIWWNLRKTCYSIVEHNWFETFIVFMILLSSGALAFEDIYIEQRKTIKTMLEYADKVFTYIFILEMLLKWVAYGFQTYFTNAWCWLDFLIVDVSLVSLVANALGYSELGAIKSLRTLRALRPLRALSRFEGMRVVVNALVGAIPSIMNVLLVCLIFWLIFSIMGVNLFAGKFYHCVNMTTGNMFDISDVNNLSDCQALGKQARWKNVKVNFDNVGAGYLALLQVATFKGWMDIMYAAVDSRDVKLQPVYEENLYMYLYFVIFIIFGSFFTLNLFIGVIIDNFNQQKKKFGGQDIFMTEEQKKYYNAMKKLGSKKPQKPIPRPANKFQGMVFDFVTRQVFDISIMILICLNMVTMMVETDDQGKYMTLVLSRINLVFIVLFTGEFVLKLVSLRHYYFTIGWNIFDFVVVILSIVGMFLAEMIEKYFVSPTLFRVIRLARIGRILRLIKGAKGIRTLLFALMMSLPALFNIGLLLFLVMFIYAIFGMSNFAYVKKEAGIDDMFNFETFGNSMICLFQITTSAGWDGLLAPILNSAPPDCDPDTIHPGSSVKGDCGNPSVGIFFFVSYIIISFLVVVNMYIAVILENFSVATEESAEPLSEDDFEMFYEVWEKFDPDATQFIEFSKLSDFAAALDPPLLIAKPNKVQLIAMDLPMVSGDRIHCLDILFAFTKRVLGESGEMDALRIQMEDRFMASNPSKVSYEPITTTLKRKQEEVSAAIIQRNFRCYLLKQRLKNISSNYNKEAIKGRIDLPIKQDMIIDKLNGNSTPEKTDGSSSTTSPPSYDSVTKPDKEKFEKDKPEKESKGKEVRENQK
T2 sequence (Q14524 whole entry, looked up): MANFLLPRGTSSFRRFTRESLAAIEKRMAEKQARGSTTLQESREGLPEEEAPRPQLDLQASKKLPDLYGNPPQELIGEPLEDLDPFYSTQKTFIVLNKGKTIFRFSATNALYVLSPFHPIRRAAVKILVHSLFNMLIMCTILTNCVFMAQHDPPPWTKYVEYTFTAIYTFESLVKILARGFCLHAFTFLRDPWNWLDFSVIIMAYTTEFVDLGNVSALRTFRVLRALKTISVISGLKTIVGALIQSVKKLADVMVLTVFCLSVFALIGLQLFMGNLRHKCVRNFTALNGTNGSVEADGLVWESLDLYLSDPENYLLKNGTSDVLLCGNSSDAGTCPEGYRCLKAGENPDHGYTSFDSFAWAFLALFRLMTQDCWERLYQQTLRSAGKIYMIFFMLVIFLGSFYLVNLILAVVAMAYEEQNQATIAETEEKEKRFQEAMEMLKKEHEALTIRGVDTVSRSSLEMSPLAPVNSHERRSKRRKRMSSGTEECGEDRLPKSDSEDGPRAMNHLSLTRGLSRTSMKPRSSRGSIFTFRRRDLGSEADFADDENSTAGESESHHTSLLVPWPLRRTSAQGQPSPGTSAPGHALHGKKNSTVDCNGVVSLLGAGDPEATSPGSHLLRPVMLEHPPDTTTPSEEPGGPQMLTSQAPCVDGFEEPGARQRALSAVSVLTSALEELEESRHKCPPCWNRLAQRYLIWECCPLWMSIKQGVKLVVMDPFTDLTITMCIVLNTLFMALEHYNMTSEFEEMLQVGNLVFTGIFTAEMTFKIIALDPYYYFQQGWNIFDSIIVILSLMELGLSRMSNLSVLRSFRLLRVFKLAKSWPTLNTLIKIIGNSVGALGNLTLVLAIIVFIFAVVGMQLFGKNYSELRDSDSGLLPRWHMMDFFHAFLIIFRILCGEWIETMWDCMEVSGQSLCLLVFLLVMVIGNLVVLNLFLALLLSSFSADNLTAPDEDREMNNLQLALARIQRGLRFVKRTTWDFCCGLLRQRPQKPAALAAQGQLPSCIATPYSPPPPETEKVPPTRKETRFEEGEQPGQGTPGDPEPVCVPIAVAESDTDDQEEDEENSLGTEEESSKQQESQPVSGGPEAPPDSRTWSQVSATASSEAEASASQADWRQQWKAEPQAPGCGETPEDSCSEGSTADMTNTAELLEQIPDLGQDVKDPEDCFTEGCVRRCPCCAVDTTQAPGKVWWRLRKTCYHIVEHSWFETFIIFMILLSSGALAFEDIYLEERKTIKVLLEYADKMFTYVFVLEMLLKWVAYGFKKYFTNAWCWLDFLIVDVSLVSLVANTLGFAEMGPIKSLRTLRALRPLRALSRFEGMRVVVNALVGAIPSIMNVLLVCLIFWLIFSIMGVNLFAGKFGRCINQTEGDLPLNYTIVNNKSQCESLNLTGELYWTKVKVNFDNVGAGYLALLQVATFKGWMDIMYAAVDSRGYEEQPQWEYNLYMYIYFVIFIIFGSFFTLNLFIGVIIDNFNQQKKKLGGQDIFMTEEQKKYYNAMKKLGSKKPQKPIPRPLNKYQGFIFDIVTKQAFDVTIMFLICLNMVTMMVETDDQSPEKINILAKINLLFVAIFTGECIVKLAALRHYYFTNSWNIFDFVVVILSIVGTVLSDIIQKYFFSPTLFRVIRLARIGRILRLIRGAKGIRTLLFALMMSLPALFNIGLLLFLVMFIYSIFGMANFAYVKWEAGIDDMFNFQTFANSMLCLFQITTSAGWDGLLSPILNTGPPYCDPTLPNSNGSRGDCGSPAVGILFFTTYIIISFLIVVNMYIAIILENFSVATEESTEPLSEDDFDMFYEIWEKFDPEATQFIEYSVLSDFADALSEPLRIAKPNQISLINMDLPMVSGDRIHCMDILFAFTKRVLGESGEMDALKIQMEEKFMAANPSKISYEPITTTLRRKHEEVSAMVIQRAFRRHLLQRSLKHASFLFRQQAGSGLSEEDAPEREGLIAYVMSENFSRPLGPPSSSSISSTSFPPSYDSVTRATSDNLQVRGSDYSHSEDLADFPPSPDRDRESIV

Consider `CC[C@H](C)[C@@H]1NC(=O)[C@@H]2CSSC[C@@H]3NC(=O)[C@H](C(C)C)NC(=O)[C@H](CC(C)C)NC(=O)[C@H](CC(N)=O)NC(=O)[C@@H]4CCCN4C(=O)[C@H](CCCNC(=N)N)NC(=O)[C@H](CSSC[C@H](NC(=O)[C@@H](N)CC(=O)O)C(=O)N[C@@H](CC(C)C)C(=O)NCC(=O)N[C@@H](Cc4ccccc4)C(=O)N[C@@H](CCSC)C(=O)N[C@@H](CCC(=O)O)C(=O)N[C@@H](CCCCN)C(=O)N2)NC(=O)[C@H](CSSC[C@@H](C(=O)N[C@@H](CCCCN)C(=O)N[C@@H](Cc2ccc(O)cc2)C(=O)N[C@H](C(=O)N[C@@H](Cc2ccccc2)C(N)=O)C(C)C)NC(=O)[C@H](Cc2c[nH]c4ccccc24)NC(=O)[C@H](CCCCN)NC(=O)[C@H](Cc2cnc[nH]2)NC(=O)[C@H]([C@@H](C)O)NC(=O)[C@H](CCCNC(=N)N)NC(=O)[C@H](CO)NC3=O)NC(=O)[C@H](CCCCN)NC(=O)[C@H](CC(=O)O)NC(=O)[C@H](CC(N)=O)NC(=O)[C@H](CC(=O)O)NC(=O)[C@@H]2CCCN2C1=O` [[Glu7]GpTx-1(1-34)] (H-DCLGFMEKCIPDNDKCCRPNLVCSRTHKWCKYVF-NH2; disulfide 2-17, 9-23, 16-30), for which the IC50 on hNav1.7 [1] was 880 nM; at hNav1.5 [2] (setting [5]), 19100 nM; on hNav1.3 (use-dependent block, hNav1.3), 1680 nM; on hNav1.7 [3] it was 98 nM; at hNav1.5 [4] it was over 10000 nM.
Regarding `CC[C@H](C)[C@@H]1NC(=O)[C@@H]2CSSC[C@@H]3NC(=O)[C@H](C(C)C)NC(=O)[C@H](CC(C)C)NC(=O)[C@H](CC(N)=O)NC(=O)[C@@H]4CCCN4C(=O)[C@H](CCCNC(=N)N)NC(=O)[C@H](CSSC[C@H](NC(=O)[C@@H](N)CC(=O)O)C(=O)N[C@@H](CC(C)C)C(=O)NCC(=O)N[C@@H](Cc4ccccc4)C(=O)N[C@@H](Cc4ccc(O)cc4)C(=O)N[C@@H](CCCNC(=N)N)C(=O)N[C@@H](CCCCN)C(=O)N2)NC(=O)[C@H](CSSC[C@@H](C(=O)N[C@@H](CCCCN)C(=O)N[C@@H](Cc2ccc(O)cc2)C(=O)N[C@H](C(=O)N[C@@H](Cc2ccccc2)C(N)=O)C(C)C)NC(=O)[C@H](Cc2c[nH]c4ccccc24)NC(=O)[C@H](CCCCN)NC(=O)[C@H](Cc2cnc[nH]2)NC(=O)[C@H]([C@@H](C)O)NC(=O)[C@H](CCCNC(=N)N)NC(=O)[C@H](CO)NC3=O)NC(=O)[C@H](CCCCN)NC(=O)[C@H](CC(=O)O)NC(=O)[C@H](CC(N)=O)NC(=O)[C@H](CC(=O)O)NC(=O)[C@@H]2CCCN2C1=O` [SEQ ID NO: 286] (H-DCLGFYRKCIPDNDKCCRPNLVCSRTHKWCKYVF-NH2; disulfide 2-17, 9-23, 16-30), the IC50 on hNav1.7 [1] amounted to 970 nM; on hNav1.5 [2] (IWQ Use Nav1.5) it was 6380 nM; on hNav1.3 (clamped to −110 mV, depolarized to −10 mV, 5 min after compound, n=2), 520 nM; against hNav1.7 [3] it was 69 nM; at hNav1.5 [4], 10000 nM.
Take `CC[C@H](C)[C@@H]1NC(=O)[C@@H]2CSSC[C@@H]3NC(=O)[C@H](C(C)C)NC(=O)[C@H](CC(C)C)NC(=O)[C@H](CC(N)=O)NC(=O)[C@@H]4CCCN4C(=O)[C@H](CCCNC(=N)N)NC(=O)[C@H](CSSC[C@H](NC(=O)[C@@H](N)CC(=O)O)C(=O)N[C@@H](CC(C)C)C(=O)NCC(=O)N[C@@H](Cc4ccccc4)C(=O)N[C@@H](CCSC)C(=O)N[C@@H](CCCCN(C)C)C(=O)N[C@@H](CCCCN)C(=O)N2)NC(=O)[C@H](CSSC[C@@H](C(=O)N[C@@H](CCCCN)C(=O)N[C@@H](Cc2ccc(O)cc2)C(=O)N[C@H](C(=O)N[C@@H](Cc2ccccc2)C(N)=O)C(C)C)NC(=O)[C@H](Cc2c[nH]c4ccccc24)NC(=O)[C@H](CCCCN)NC(=O)[C@H](Cc2c[nH]cn2)NC(=O)[C@H]([C@@H](C)O)NC(=O)[C@H](CCCNC(=N)N)NC(=O)[C@H](CO)NC3=O)NC(=O)[C@H](CCCCN)NC(=O)[C@H](CC(=O)O)NC(=O)[C@H](CC(N)=O)NC(=O)[C@H](CC(=O)O)NC(=O)[C@@H]2CCCN2C1=O` [[K(Me2)7]GpTx-1(1-34)] (H-DCLGFM[Lys(Me2)]KCIPDNDKCCRPNLVCSRTHKWCKYVF-NH2; disulfide 2-17, 9-23, 16-30): the IC50 on hNav1.7 [1] (IonWorks Quattro, use-dependent block, hNav1.7, read-out: IWQ Use Nav1.7) was 820 nM; on hNav1.5 [2] (setting [5]), 13300 nM; on hNav1.3 (use-dependent block, hNav1.3) it was 270 nM; against hNav1.7 [3], 20 nM; against hNav1.5 [4], over 10000 nM.

Source of the values: US9340590B2 (priority 2011, dated 2016).
